Patent publication US20240294478A1, “ANTI-CANCER COMPOUNDS AND METHODS OF USE” (YALE UNIVERSITY, priority 2021, published 2024)

What was measured:
MGMT−/MMR− cells = assay: IR alkaline comet assay, LN229 MGMT-/MMR-, time course; format: cell-based, human; conditions: time points 2-24 h
Experimental: The IR alkaline comet assay, adapted for ICL detection was performed to determine if ICLs were formed in MGMT-cells treated with KL-50. In this assay, cells were sequentially exposed to genotoxins and ionizing radiation, and then analyzed by single cell alkaline gel electrophoresis. Attenuation of the IR-induced comet tail is indicative of ICL formation.
IR Alkaline Comet Assay. This assay was performed utilizing the CometAssay™ Kit (Trevigen) according to the alkaline assay protocol, with the addition of slide irradiation post-lysis. Cells were trypsinized, washed with 1×PBS, added to melted Comet LMAgarose (Trevigen), and spread on Trevigen CometSlides at a density of 1000 cells per sample in 50 μL. Lysis solution (Trevigen) with 10% DMSO was added overnight at 4° C. Slides were removed from lysis buffer and irradiated to 0 or 10 Gy using an XRAD 320 X-Ray System (Precision X-Ray) at 320 kV, 12.5 mA, and 50.0 cm SSD, with a 2 mm Al filter and 20 cm×20 cm collimator. Slides were then placed in alkaline buffer (200 mM NaOH, 1 mM EDTA) for 45 min, followed by electrophoresis in 850 mL alkaline buffer for 45 min at 4° C. Slides were washed and stained with SYBR gold (Invitrogen) per Trevigen assay protocol. Slides were imaged on a Cytation 3 imaging reader (BioTek), and comets were analyzed using CometScore 2.0 software (TriTek).

LN229 MGMT+ shPMS2 cells = assay: Short-term viability assay, LN229 MGMT+ shPMS2; format: cell-based; conditions: Homo sapiens, LN-229, Table III, read-out: IC50 against LN229 cell lines, MGMT MMR−
Experimental: The activity of KL-50 in MGMT-LN229 cells engineered to lack expression of other key MMR proteins including MSH6, MLH1, PMS2, and MSH3 was also confirmed. Western blotting was performed in LN229 MGMT+/−cells with stable expression of shRNA targeting MSH6, MLH1, PMS2, or MSH3 to confirm depletion of the shRNA targets. In shMSH6 cells, there was reduced expression of MSH2, and in shMLH1 cells, there was loss of PMS2, due to destabilization in the setting of loss of their heterodimeric partners. GAPDH serves as loading control. […] Short-term viability assay curves for KL-50 in LN229 MGMT+/−, MMR+/shMSH6 cells. […] Short-term viability assay curves for KL-50 in LN229 MGMT+/−, MMR+/shMLH1 cells. […] Short-term viability assay curves for KL-50 in LN229 MGMT+/−, MMR+/shPMS2 cells. […] Short-term viability assay curves for KL-50 in LN229 MGMT+/−, MMR+/shMSH3 cells.
MMR Protein shRNA Knockdown. pGIPZ lentiviral shRNA vectors targeting MSH2, MSH6, MLH1, PMS2, and MSH3 were purchased from Horizon Discovery (Table IV). […]
Short-term Cell Viability Assay. […] Cells were imaged on a Cytation 3 imaging reader (BioTek) and quantified using CellProfiler software. For in vitro short-term growth delay experiments, IC50 values were determined from the nonlinear regression equation, [inhibitor] vs normalized response with variable slope.

[1] = system: LN229 MGMT+/−, MMR+/− cells; assay: Micronuclei analysis; format: cell-based, human; conditions: 20 μM, 48 h
Source text: FIGS. 8A-8K. (FIG. 8A) Change in percent cells with 1 micronuclei from baseline (DMSO control) after treatment as in FIGS. 5A and 5C. Columns, mean; error bars, SD; n>15 technical replicates; **** p<0.0001; ns, not significant. (FIG. 8B) Short-term viability assay curves for KL-50 in PD20 cells, deficient in FANCD2 (FANCD2−/−) or complemented with FANCD2 (+FANCD2). (FIG. 8C) Short-term viability assay curves for KL-50 in PEO4 (BRCA2+) and PEO1 (BRCA2−/−) cells pre-treated with 0.01% DMSO control or 10 μM O^6BG (+O^6BG) for 1 h prior to KL-50 addition. (FIG. 8D) Short-term viability assay curves for KL-50 in DLD1 BRCA2+/− and BRCA2−/−cells pre-treated with 0.01% DMSO control or 10 μM O^6BG (+O^6BG) for 1 h prior to KL-50 addition. For FIGS. 8B-8D, points, mean; error bars, SD; n=3 technical replicates. […] (FIG. 8E) Validation of micronuclei identification using olaparib as positive control. […] The % FANCD2 ubiquitination (% FANCD2 Ub) is quantified as the background-corrected integrated band intensity of the upper band divided by the sum of the background-corrected integrated band intensities of the upper and lower bands. […]
Micronuclei Analysis. An automated image analysis pipeline was developed by YCMD using InCell Analyzer software to quantify micronuclei formation. […]

Structure (SMILES) | DNA damage in unirradiated samples (MGMT−/MMR− cells) | DNA mobility after IR, rate of ICL formation (MGMT−/MMR− cells) | IC50 (LN229 MGMT+ shPMS2 cells) | micronuclei formation ([1]; greatest in MGMT−/MMR− cells) | foci induction or micronuclei formation in MGMT−/MMR− cells [1]
NC(=O)c1ncn2c(=O)n(CCF)nnc12 [KL-50] | maximal damage at 2 h | time-dependent decrease in DNA mobility | 215 ± 16 µM | significant increase in micronuclei | 
Cn1nnc2c(C(N)=O)ncn2c1=O [TMZ, 4-methyl-5-oxo-2,3,4,6,8-pentazabicyclo[4.3.0]nona-2,7,9-triene-9-carboxamide, reference compound] | maximal damage at 2 h | did not induce a statistically significant decrease in DNA migration within 24 h | 700 ± 58 µM |  | not observed
